Assay results: patent publication US20260355168A1, “COMPOSITIONS AND METHODS FOR TREATING AND DETECTING CANCER” (CASE WESTERN RESERVE UNIVERSITY, priority 2022, published 2026)
“Also recorded” adds a separate entry of the source.

Key:
LN229 cells [1] = assay: LN229 scratch wound healing assay; assay type: cell-based, human; settings: for activity at 100 µM: Homo sapiens, LN-229, normalized to DMSO controls, read-out: LN229 scratch wound closure relative to DMSO controls
Source text: FIGS. 3(A-D) illustrate a histogram and images of the LN229 scratch wound assays. A. Histogram showing the effects of all soluble wedge-targeted compounds on LN229 scratch wound closure. Cell movement into the scratches was quantified from scratch wound widths at the start and end of the assay and normalized to the average movement of cells in the unblinded DMSO control samples. Data is presented as average percentages±standard error of the means (s.e.m.), and compound bar codes are shown on the x-axis. The majority of compounds were screened with an n=2. Some priority compounds were screened with 3-6 replicates. Representative endpoint images of samples treated with DMSO (B) and two priority inhibitors (C and D) are shown. The relative migration distances for each example are indicated.
(§1) Cells were seeded at a density of 2.7×10^4 cells per well into the internal wells of Incuyte1 Imagelock 96-well plates (Essen BioScience Inc., Ann Arbor, MI) and cultured overnight to form monolayers. Monolayers were wounded with an IncuCyte1 96-well Woundmaker Tool per the manufacturer's instructions. The outer wells were filled with PBS to buffer edge effects, and then the wounded monolayers were cultured in 100 μl of fresh media with compounds or DMSO (2×replicates at 100 μM or 1%, respectively) at 37 °C and 5% CO2. Images were captured every 4 hrs. using an Incucyte live cell imaging system equipped with the Scratch Wound Module. Scratch wound widths were calculated, per the manufacturer's instructions, at TO and at endpoint (typically T12 for LN229 and U87 cells and T8 for Gli36), which was taken as the last timepoint before wound closure. The cell migration distance was calculated from scratch widths [(T0Width−TendpointWidth)/2] and normalized to the average distance migrated by the DMSO controls. Values are presented as average percentages±standard errors of the means (s.e.m.). The majority of compounds were screened with an n of two, but the n for priority hits ranges from 2-6.
Scratch assays measure the ability of cells to migrate into a wound and close it creating a monolayer.

LN229 cells [2] = assay: LN229 glioma sphere formation and growth assay; assay type: cell-based, human; settings: 100 μM, in words; for Effect on LN229 sphere formation: day 1; for Effect on LN229 sphere growth: day 7
Description: FIGS. 5(A-E) illustrate a histogram and images showing the results of the LN229 sphere formation and growth assays. Selected inhibitors, activators, and control compounds identified in LN229 and/or U87 scratch wound closure assays were retested at 100 μM in a secondary assay for glioma cell (LN229) sphere formation and growth. A. Histogram showing the effects of the indicated compounds on sphere formation. On day 1, sphere footprint areas were determined and normalized to the average footprint area of the unblinded vehicle-treated controls. On day 1, a larger footprint area indicates inhibition of aggregation. B. Histogram showing the effects of the indicated compounds on sphere growth. On day 7, the changes in sphere footprint areas were calculated and normalized to the average size change of the unblinded vehicle-treated controls. On day 7, a smaller value indicates reduced growth. […] Data is presented as percentages±s.e.m. of 2-4 replicates. Representative images of samples treated with DMSO (C) and two priority inhibitors (D and E) are shown. Relative day 1 footprint areas and day 7 growth measurements are indicated for each example.
FIGS. 15(A-D) illustrate a histogram and images of titration of selected compounds on LN229 sphere formation and growth. LN229 cells were plated onto non-adherent surfaces and treated with the indicated compounds at 100, 50, and 25 μM. A. On day 1, sphere footprint areas were determined and normalized to the average footprint area of the unblinded vehicle-treated controls. On day 1, a larger foot-print area indicates inhibition of aggregation. B. On day 7, the changes in sphere footprint areas were calculated and normalized to the average size change of the unblinded vehicle-treated controls. On day 7, a smaller value indicates reduced growth. […] Data is presented as percentages±s.e.m. The initial test at 100 μM and the follow-up at that dose with titration is shown. Each bar is the average of 2 replicates. Representative day 1 (C) and day 7 (D) images of samples treated with two priority inhibitors are shown. Relative day 1 sphere footprint areas and day 7 growth for each example are indicated.
(§2) Cells were seeded at a density of 7500 cells per well into the internal wells of 96-well plates coated with 0.75% (wt/vol) PVA as previously described. Compounds were added (2×replicates per treatment) at the indicated final concentrations, and control wells were treated with matching concentrations of DMSO. The external wells of the plates were filled with PBS to buffer against edge effects, and the cells were incubated at 37 °C and 5% CO2 for 7 days. A Leica CTR6500 microscope fitted with an automated stage was used to capture brightfield images on day 1 and day 7, and sphere footprint areas were measured using Image J (v1.52a http://imagej.nih.gov/ij) as previously described. To quantify the effects of the compounds on day 1, the footprint areas of the treated wells were normalized to the average area of the matched DMSO control wells. To quantify the effects of the compounds on sphere growth, the change in the sphere footprint areas was calculated ([…]) and then normalized to the average size change of the matched DMSO samples. All values are presented as average percentages±s.e.m.
We tested the effects of twenty-four compounds (11 flagged as inhibitory, 4 as stimulatory, and nine as inert in the initial scratch-wound screen, FIG. 2) on the ability of LN229 cells to mediate cell-cell adhesion and grow in 3D culture on non-adherent surfaces. To quantify sphere formation (FIG. 5A), the footprint areas of aggregates were measured on day 1 and normalized to that of the DMSO control. At this time point, a larger footprint size (>120%) indicates inhibition, i.e., the failure of cells to form a compact aggregate. To quantify sphere growth (FIG. 5B), we calculated the percent changes in sphere footprint areas between day 1 and day 7 and normalized them to that of the DMSO controls.

LN229 cells [3] = assay: Helix Blue staining of LN229 spheres (cell survival); assay type: cell-based, human; settings: 100 μM, 24 h, qualitative
Description: (§3) FIG. 17 illustrates images showing the effects of prioritized inhibitors on cell survival. LN229 cells were plated onto non-adherent surfaces and cultured in the presence of the indicated compounds (100 μM). On day 1, spheres were stained with Helix Blue to detect dying cells. Parental Sf9 cells (which lack PTPμ) plated onto tissue culture plastic were also grown in the presence of the indicated compounds and, on day 1, stained with Helix Blue. Three compounds appeared to cause a qualitative increase in staining in LN229 spheres. No compound was toxic to Sf9 cells.
(§4) LN229 cells, plated onto non-adherent surfaces as described above, and parental Sf9 cells (without PTPμ), seeded into 96-well flat bottom tissue culture plates, were treated for 24 h with the indicated compounds (100 μM). The cells and spheres were then treated with 5.5 μM Helix Blue (Biolegend, San Diego, CA) and imaged at 10× on a Leica CTR6500 fluorescence microscope.
(§5) The seven penetrant inhibitors were tested to see if they affected the survival of LN229 spheres and parental Sf9 cells (which lack PTPμ) (FIG. 17).

parental Sf9 cells = assay: Helix Blue staining of parental Sf9 cells (cell survival); assay type: cell-based, insect; settings: 100 μM, 24 h, cells lack PTPμ
Description: as §3, §4, §5

PTPμ = PTPμ (Homo sapiens, UniProt P28827); assay: PTPμ-dependent Sf9 aggregation assay; assay type: cell-based; settings: 100 μM; 20 min pretreatment; in words
Sequence of PTPμ (P28827 21-1452): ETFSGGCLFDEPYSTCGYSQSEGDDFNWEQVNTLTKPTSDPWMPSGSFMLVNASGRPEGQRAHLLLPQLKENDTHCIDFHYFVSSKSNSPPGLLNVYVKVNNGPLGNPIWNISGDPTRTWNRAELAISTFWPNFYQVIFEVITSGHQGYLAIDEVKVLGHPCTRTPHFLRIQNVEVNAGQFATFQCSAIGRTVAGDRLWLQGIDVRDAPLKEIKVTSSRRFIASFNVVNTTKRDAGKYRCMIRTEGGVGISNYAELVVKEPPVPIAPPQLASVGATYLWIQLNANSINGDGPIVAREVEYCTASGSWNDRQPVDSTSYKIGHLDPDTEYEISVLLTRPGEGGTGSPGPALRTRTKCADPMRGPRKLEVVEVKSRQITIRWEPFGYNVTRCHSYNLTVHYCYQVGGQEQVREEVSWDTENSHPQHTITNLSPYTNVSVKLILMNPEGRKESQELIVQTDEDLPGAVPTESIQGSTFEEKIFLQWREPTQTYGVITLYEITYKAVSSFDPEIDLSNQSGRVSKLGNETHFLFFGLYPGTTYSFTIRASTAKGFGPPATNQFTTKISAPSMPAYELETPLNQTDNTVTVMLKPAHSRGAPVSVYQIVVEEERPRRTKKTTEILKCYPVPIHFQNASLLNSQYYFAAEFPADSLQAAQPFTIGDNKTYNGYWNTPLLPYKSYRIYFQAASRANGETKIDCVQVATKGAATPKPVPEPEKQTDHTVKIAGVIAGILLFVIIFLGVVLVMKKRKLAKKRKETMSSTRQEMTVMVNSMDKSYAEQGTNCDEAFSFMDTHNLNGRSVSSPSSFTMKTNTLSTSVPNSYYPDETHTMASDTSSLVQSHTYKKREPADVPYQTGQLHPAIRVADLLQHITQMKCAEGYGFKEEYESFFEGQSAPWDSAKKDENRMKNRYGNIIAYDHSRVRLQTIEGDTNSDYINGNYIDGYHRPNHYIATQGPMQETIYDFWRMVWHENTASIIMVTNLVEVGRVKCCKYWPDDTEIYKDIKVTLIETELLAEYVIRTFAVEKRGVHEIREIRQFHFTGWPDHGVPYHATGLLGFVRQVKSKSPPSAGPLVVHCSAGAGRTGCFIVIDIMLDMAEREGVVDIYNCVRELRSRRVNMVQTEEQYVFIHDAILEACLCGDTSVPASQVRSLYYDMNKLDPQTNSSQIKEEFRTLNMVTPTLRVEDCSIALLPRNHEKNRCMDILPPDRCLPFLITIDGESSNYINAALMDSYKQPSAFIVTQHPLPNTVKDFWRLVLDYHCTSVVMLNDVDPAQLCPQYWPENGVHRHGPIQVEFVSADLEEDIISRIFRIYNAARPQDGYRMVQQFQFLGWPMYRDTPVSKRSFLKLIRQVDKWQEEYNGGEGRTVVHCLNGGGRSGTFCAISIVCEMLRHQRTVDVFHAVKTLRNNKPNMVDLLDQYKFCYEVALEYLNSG

glioma cells = assay: Glioma cell assays combined (scratch and sphere, several cell lines); assay type: cell-based, human; settings: 100 μM; for Effect on glioma cells, overall: multiple assays and cell lines
Description: FIG. 2 illustrates a schematic of a functional screening approach. Seventy-four PTPμ wedge-targeted compounds and 2 blinded DMSO samples were received from Atomwise and screened at 100 μM in scratch wound healing assays using two glioma cell lines (LN229 and U87). Selected active and control compounds were taken into secondary assays (Gli36 scratch and LN229 and Gli36 sphere formation and growth assays). Inhibitors selected as being active in primary and secondary screens were tested for effects on the survival of LN229 and Sf9 cells, and selected glioma-cell inhibitors and activators were screened for effects on Sf9-PTPμ aggregation, a highly specific test for PTPμ function.
as §1, §2

U87 cells = assay: U87 scratch wound healing assay; assay type: cell-based, human; settings: 100 μM
Source text: FIGS. 11(A-D) illustrate a histogram and images of the results of the U87 scratch wound assays. A. Histogram showing the effects of all soluble wedge pocket-targeting compounds on U87 scratch wound closure. Cell movement into the scratches was quantified from scratch wound widths at the start and end of the assay and normalized to the average movement of cells in the unblinded DMSO control samples. Data is presented as average percentages±s.e.m., and compound bar codes are shown on the x-axis. Most compounds were screened with an n of 2-4. Representative images of scratch wounds treated with DMSO (A) or two priority inhibitors (C and D) are shown.
as §1

| Structure (SMILES) | activity at 100 µM (LN229 cells [1]) | Effect on LN229 sphere formation (LN229 cells [2]) | Effect on LN229 cell survival / cell death (LN229 cells [3]) | Effect on parental Sf9 cell survival (parental Sf9 cells) | Effect on PTPμ-dependent Sf9 aggregation / adhesion (PTPμ) | Effect on glioma cells, overall (glioma cells) | Effect on LN229 cell morphology in scratch assay (LN229 cells [1]; 100 μM) | Effect on U87 cell morphology in scratch assay (U87 cells) | Effect on LN229 sphere growth (LN229 cells [2]) | Effect on glioma cell migration (glioma cells; scratch assays) |
| --- | --- | --- | --- | --- | --- | --- | --- | --- | --- | --- |
| COc1ccccc1CNC(=O)CC(NC(N)=O)c1cccc(Oc2ccccc2)c1 (centres unmarked) [Compound 247679045] | < 60% | completely blocked sphere formation | caused a qualitative increase in LN229-cell death | did not affect parental Sf9 cells | not shown to affect PTPμ-mediated aggregation; also recorded: did not affect PTPμ-dependent adhesion | highly penetrant inhibitors in glioma cell assays | – | – | – | – |
| O=C1NC2(CCCC2)C(=O)N1CC(=O)N(Cc1cccs1)c1ccc2c(c1)OCCO2 [Compound 247679515] | < 60% | completely blocked sphere formation | – | – | not shown to affect PTPμ-mediated aggregation; also recorded: did not affect PTPμ-dependent adhesion | highly penetrant inhibitors in glioma cell assays | rounding | – | – | – |
| CCC1(CC)NC(=O)N(CC(=O)Nc2ccc(Oc3ccccc3)cc2)C1=O [Compound 247682206] | < 60% | delayed sphere formation | – | – | PTPμ-dependent adhesion; also recorded: affect PTPμ-mediated aggregation | highly penetrant inhibitors; also recorded: able to inhibit glioma cells | – | pile-up of U87 cells at the edge of the scratch wound | inhibited growth | able to inhibit glioma cell migration |
| CC(C)COc1ccc(C(=O)N2CCNC(=O)C2CC(=O)OC2CCCCC2)cc1 (centres unmarked) [Compound 247682240] | < 60% | delayed sphere formation | – | – | not shown to affect PTPμ-mediated aggregation | highly penetrant inhibitors | – | pile-up of U87 cells at the edge of the scratch wound | inhibited growth | – |
| Cc1cccc(-c2ccc3c(c2)C(=O)N2CCC(NC(=O)COCC(=O)O)C2C(=O)N3)c1C (centres unmarked) [Compound 247685429] | – | – | – | – | able to inhibit PTPμ-dependent adhesion; also recorded: able to inhibit PTPμ-mediated aggregation | did not affect glioma cells | – | – | – | – |
